Data on 1 compound can be found in patent US20250127903A1, “SUBSTITUTED PIPERIDINE DEGRONIMERS FOR TARGET PROTEIN DEGRADATION” (priority 2016, published 2025).

pKd: −log10 of the molar value.

The target in the test is CRBN-DDB1 (Homo sapiens (Human), UniProt Q96SW2). Put plainly: CRBN-DDB1 fluorescence polarization (FP) binding assay. Conditions: Table 2 Degrons; displacement of Thalidomide-Alexa Fluor or Pomalidomide-fluorescein probe. As to the method: Measuring compound ligand binding to CRBN-DDB1 was carried out using an established sensitive and quantitative in vitro fluorescence polarization (FP) based binding assay. […] Compounds were dispensed from serially diluted DMSO stock into black 384-well compatible fluorescence polarization plates using an Echo acoustic dispenser. […] Matching control wells excluding CRBN-DDB1 were used to correct for background fluorescence. Plates were read on an Envision plate reader with appropriate FP filter sets.
CRBN-DDB1, sequence (Q96SW2 whole entry, looked up): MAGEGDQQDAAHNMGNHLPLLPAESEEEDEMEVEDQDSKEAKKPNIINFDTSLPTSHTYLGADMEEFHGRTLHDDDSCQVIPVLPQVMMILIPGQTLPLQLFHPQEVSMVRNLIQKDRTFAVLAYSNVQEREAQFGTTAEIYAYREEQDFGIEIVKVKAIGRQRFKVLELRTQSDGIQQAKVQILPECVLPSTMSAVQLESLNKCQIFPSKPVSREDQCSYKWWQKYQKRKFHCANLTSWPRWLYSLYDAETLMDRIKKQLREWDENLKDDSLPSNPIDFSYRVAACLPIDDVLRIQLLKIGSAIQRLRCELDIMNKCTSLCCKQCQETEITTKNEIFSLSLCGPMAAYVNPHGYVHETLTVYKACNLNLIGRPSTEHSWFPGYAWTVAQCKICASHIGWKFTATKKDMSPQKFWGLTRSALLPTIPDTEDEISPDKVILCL
CRBN-DDB1, sequence (Q16531 whole entry partner, looked up): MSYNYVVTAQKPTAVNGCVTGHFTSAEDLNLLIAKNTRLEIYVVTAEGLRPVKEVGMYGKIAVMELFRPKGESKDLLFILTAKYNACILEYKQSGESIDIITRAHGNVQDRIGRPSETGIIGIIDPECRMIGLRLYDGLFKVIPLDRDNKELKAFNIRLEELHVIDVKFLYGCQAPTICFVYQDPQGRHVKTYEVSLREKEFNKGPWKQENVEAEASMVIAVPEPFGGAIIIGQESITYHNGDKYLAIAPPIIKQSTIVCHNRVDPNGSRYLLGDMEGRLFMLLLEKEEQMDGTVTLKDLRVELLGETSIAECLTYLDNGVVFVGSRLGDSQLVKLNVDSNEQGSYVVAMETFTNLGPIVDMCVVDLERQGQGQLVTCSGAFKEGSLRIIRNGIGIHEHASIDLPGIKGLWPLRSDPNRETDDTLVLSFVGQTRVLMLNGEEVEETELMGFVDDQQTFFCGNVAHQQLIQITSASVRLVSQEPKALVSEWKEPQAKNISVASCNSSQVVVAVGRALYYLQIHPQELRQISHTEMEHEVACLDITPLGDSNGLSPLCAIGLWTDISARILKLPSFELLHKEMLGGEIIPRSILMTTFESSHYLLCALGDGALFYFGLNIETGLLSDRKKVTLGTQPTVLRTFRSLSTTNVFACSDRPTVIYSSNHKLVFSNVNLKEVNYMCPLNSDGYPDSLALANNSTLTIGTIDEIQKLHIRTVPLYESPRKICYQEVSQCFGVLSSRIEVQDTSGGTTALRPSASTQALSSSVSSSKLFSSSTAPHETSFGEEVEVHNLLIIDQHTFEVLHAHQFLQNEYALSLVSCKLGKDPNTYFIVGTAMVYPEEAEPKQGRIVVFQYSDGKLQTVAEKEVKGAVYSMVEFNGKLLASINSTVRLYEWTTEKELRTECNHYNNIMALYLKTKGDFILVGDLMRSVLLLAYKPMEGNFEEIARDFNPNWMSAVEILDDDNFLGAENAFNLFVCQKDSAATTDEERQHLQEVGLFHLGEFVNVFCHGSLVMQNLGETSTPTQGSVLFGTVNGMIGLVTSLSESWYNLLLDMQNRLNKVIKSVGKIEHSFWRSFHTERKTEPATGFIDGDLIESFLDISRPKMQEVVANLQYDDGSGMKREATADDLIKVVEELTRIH

On to `CC(C)(C)OC(=O)N1CCC(n2cc(CNc3cccc4c3C(=O)N(C3CCC(=O)NC3=O)C4=O)nn2)CC1` (stereo not shown) [Compound 264, tert-Butyl 4-(4-(((2-(2,6-Dioxopiperidin-3-yl)-1,3-dioxoisoindolin-4-yl)amino)methyl)-1H-1,2,3-triazol-1-yl)piperidine-1-carboxylate], for which the pKd is more than 5.00.

For orientation: pKd means the Kd on a negative log10 scale, so that one unit is a factor of ten. A high value points to a low Kd.
